Common to all, as to test: relative viability (nuclei count vs DMSO), 5 days (fraction); higher = more cells survive
Compound in experiment [1]: C[C@]12O[C@H](C[C@]1(O)CO)n1c3ccccc3c3c4c(c5c6ccccc6n2c5c31)CNC4=O [Lestaurtinib] + COc1cccc2cc(-c3nc([C@H]4CC[C@H](C(=O)O)CC4)n4ncnc(N)c34)[nH]c12 [OSI-027] (partner 0.5 µM)
A digest of the protocol: (§1)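 After 5 days of treatment, lung cancer cells in 1536-well plates were fixed and stained in a single step (final 0.05% Triton X-100, 1% formaldehyde, 1 ug/ml Hoechst) and their nuclei counted on 4× images. Treatment had been applied by pin tool the day after seeding as one drug alone or as a fixed anchor-drug dose with five library-drug doses (not always all listed) in √10 steps. Relative viability is the nuclei count of treated wells divided by that of vehicle wells, and values are medians of duplicate plates.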

Compound in experiment [2]: C1=CC(=CC=C1C2=CC(=C(S2)NC(=O)N)C(=O)N)F [TPCA-1] + C[C@]1(O)C[C@@H](c2nc(-c3ccc4ccc(-c5ccccc5)nc4c3)c3c(N)nccn32)C1 [Linsitinib] (partner 1 µM)
A digest of the protocol:
as §1

Compound in experiment [3]: C[C@]12O[C@H](C[C@]1(O)CO)n1c3ccccc3c3c4c(c5c6ccccc6n2c5c31)CNC4=O [Lestaurtinib] + Nc1nc2[nH]cc(CCc3ccc(C(=O)N[C@@H](CCC(=O)O)C(=O)O)cc3)c2c(=O)[nH]1 [Pemetrexed] (partner 0.2 µM)
Summed up: as §1

Compound in experiment [4]: C[C@]12O[C@H](C[C@]1(O)CO)n1c3ccccc3c3c4c(c5c6ccccc6n2c5c31)CNC4=O [Lestaurtinib] + CCNC(=O)c1noc(-c2cc(C(C)C)c(O)cc2O)c1-c1ccc(CN2CCOCC2)cc1 [Luminespib] (partner 0.01 µM)
Summed up:
as §1

In the case of NCI-H23, the relative viability worked out at 0.592 in experiment [1] (first compound 0.005 µM); 0.719 in experiment [1] (first compound 0.01581 µM); 0.596 in experiment [1] (first compound 0.05 µM); 0.418 in experiment [1] (first compound 0.1581 µM); 0.345 in experiment [1] (first compound 0.5 µM); 0.537 in experiment [2] (first compound 0.04 µM). Also, the relative viability in experiment [2] (first compound 0.1265 µM) came to 0.559; in experiment [2] (first compound 0.4 µM) it was 0.759; in experiment [2] (first compound 1.265 µM), 0.602; in experiment [2] (first compound 4 µM), 0.549; in experiment [3] (first compound 0.005 µM), 0.622; in experiment [3] (first compound 0.01581 µM), 0.787. In addition, the relative viability in experiment [3] (first compound 0.05 µM) was 0.503; in experiment [3] (first compound 0.1581 µM), 0.449; in experiment [3] (first compound 0.5 µM), 0.292; in experiment [4] (first compound 0.005 µM), 0.241; in experiment [4] (first compound 0.01581 µM), 0.217; in experiment [4] (first compound 0.05 µM), 0.242. Moreover, the relative viability in experiment [4] (first compound 0.1581 µM) is 0.184; in experiment [4] (first compound 0.5 µM) it was 0.188.

Consider NCI-H322M, for which the relative viability was determined as 0.561 in experiment [1] (first compound 0.005 µM); 0.525 in experiment [1] (first compound 0.01581 µM); 0.427 in experiment [1] (first compound 0.05 µM); 0.498 in experiment [1] (first compound 0.1581 µM); 0.372 in experiment [1] (first compound 0.5 µM); 1.02 in experiment [2] (first compound 0.04 µM). In addition, the relative viability in experiment [2] (first compound 0.1265 µM) was determined as 0.834; in experiment [2] (first compound 0.4 µM), 0.952; in experiment [2] (first compound 1.265 µM), 0.803; in experiment [2] (first compound 4 µM), 0.607; in experiment [3] (first compound 0.005 µM) it was 0.599; in experiment [3] (first compound 0.01581 µM), 0.606. Moreover, the relative viability came to 0.592 in experiment [3] (first compound 0.1581 µM); 0.445 in experiment [3] (first compound 0.5 µM); 0.773 in experiment [4] (first compound 0.005 µM); 0.713 in experiment [4] (first compound 0.01581 µM); 0.449 in experiment [4] (first compound 0.05 µM); 0.337 in experiment [4] (first compound 0.1581 µM). Moreover, the relative viability in experiment [4] (first compound 0.5 µM) worked out at 0.329.

For the cell line NCI-H358, the relative viability in experiment [1] (first compound 0.005 µM) is 0.658; in experiment [1] (first compound 0.01581 µM) it was 0.629; in experiment [1] (first compound 0.05 µM), 0.285; in experiment [1] (first compound 0.1581 µM), 0.232; in experiment [1] (first compound 0.5 µM), 0.0986; in experiment [2] (first compound 0.04 µM), 0.902. The relative viability in experiment [2] (first compound 0.1265 µM) amounted to 0.557; in experiment [2] (first compound 0.4 µM), 0.691; in experiment [2] (first compound 1.265 µM), 0.487; in experiment [2] (first compound 4 µM) it was 0.339; in experiment [3] (first compound 0.005 µM), 0.177; in experiment [3] (first compound 0.01581 µM), 0.164. Moreover, the relative viability stood at 0.174 in experiment [3] (first compound 0.05 µM); 0.136 in experiment [3] (first compound 0.1581 µM); 0.158 in experiment [3] (first compound 0.5 µM); 0.446 in experiment [4] (first compound 0.005 µM); 0.325 in experiment [4] (first compound 0.01581 µM); 0.378 in experiment [4] (first compound 0.05 µM). In addition, the relative viability in experiment [4] (first compound 0.1581 µM) was found to be 0.149; in experiment [4] (first compound 0.5 µM) it was 0.121.

In the case of NCI-H441, the relative viability in experiment [1] (first compound 0.005 µM) was 0.597; in experiment [1] (first compound 0.01581 µM), 0.589; in experiment [1] (first compound 0.05 µM), 0.279; in experiment [1] (first compound 0.1581 µM), 0.342; in experiment [1] (first compound 0.5 µM), 0.303; in experiment [2] (first compound 0.04 µM), 0.669. The relative viability in experiment [2] (first compound 0.1265 µM) worked out at 0.287; in experiment [2] (first compound 0.4 µM) it was 0.569; in experiment [2] (first compound 1.265 µM) it was 0.328; in experiment [2] (first compound 4 µM), 0.188; in experiment [3] (first compound 0.005 µM), 0.272; in experiment [3] (first compound 0.01581 µM), 0.258. The relative viability in experiment [3] (first compound 0.05 µM) was found to be 0.238; in experiment [3] (first compound 0.1581 µM) it was 0.277; in experiment [3] (first compound 0.5 µM) it was 0.285; in experiment [4] (first compound 0.005 µM), 0.375; in experiment [4] (first compound 0.01581 µM) it was 0.277; in experiment [4] (first compound 0.05 µM), 0.329. The relative viability in experiment [4] (first compound 0.1581 µM) amounted to 0.399; in experiment [4] (first compound 0.5 µM) it was 0.409.

On to NCI-H460, for which the relative viability in experiment [1] (first compound 0.005 µM) is 0.498; in experiment [1] (first compound 0.01581 µM), 0.859; in experiment [1] (first compound 0.05 µM), 0.359; in experiment [1] (first compound 0.1581 µM), 0.229; in experiment [1] (first compound 0.5 µM), 0.204; in experiment [2] (first compound 0.04 µM) it was 0.946. Also, the relative viability in experiment [2] (first compound 0.1265 µM) was determined as 0.737; in experiment [2] (first compound 0.4 µM) it was 0.735; in experiment [2] (first compound 1.265 µM) it was 0.339; in experiment [2] (first compound 4 µM) it was 0.286; in experiment [3] (first compound 0.005 µM), 0.0559; in experiment [3] (first compound 0.01581 µM), 0.0645. Further, the relative viability in experiment [3] (first compound 0.05 µM) is 0.0633; in experiment [3] (first compound 0.1581 µM), 0.0509; in experiment [3] (first compound 0.5 µM), 0.0531; in experiment [4] (first compound 0.005 µM), 0.0333; in experiment [4] (first compound 0.01581 µM) it was 0.0274; in experiment [4] (first compound 0.05 µM), 0.0352. Besides, the relative viability worked out at 0.0238 in experiment [4] (first compound 0.1581 µM) and 0.0199 in experiment [4] (first compound 0.5 µM).

With NCI-H520, the relative viability in experiment [1] (first compound 0.005 µM) stood at 0.299; in experiment [1] (first compound 0.01581 µM), 0.286; in experiment [1] (first compound 0.05 µM), 0.272; in experiment [1] (first compound 0.1581 µM), 0.206; in experiment [1] (first compound 0.5 µM), 0.196; in experiment [2] (first compound 0.04 µM), 1.16. Besides, the relative viability in experiment [2] (first compound 0.1265 µM) was found to be 0.832; in experiment [2] (first compound 0.4 µM), 0.989; in experiment [2] (first compound 1.265 µM), 0.838; in experiment [2] (first compound 4 µM), 0.921; in experiment [3] (first compound 0.005 µM), 0.772; in experiment [3] (first compound 0.01581 µM), 0.678. In addition, the relative viability in experiment [3] (first compound 0.05 µM) amounted to 0.593; in experiment [3] (first compound 0.1581 µM), 0.369; in experiment [3] (first compound 0.5 µM), 0.318; in experiment [4] (first compound 0.005 µM), 0.226; in experiment [4] (first compound 0.01581 µM) it was 0.202; in experiment [4] (first compound 0.05 µM), 0.234. In addition, the relative viability is 0.217 in experiment [4] (first compound 0.1581 µM) and 0.244 in experiment [4] (first compound 0.5 µM).

Regarding NCI-H596, the relative viability came out at 0.743 in experiment [1] (first compound 0.005 µM); 0.818 in experiment [1] (first compound 0.01581 µM); 0.647 in experiment [1] (first compound 0.05 µM); 0.717 in experiment [1] (first compound 0.1581 µM); 0.65 in experiment [1] (first compound 0.5 µM); 1.14 in experiment [2] (first compound 0.04 µM). Also, the relative viability was determined as 1.05 in experiment [2] (first compound 0.1265 µM); 1.13 in experiment [2] (first compound 0.4 µM); 1.11 in experiment [2] (first compound 1.265 µM); 1.14 in experiment [2] (first compound 4 µM); 0.487 in experiment [3] (first compound 0.005 µM); 0.488 in experiment [3] (first compound 0.01581 µM). Also, the relative viability in experiment [3] (first compound 0.05 µM) was 0.504; in experiment [3] (first compound 0.1581 µM), 0.476; in experiment [3] (first compound 0.5 µM), 0.453; in experiment [4] (first compound 0.005 µM), 0.959; in experiment [4] (first compound 0.01581 µM), 1.12; in experiment [4] (first compound 0.05 µM) it was 1.03. In addition, the figures for the relative viability in experiment [4] (first compound 0.1581 µM) and in experiment [4] (first compound 0.5 µM) were 1.27 and 0.953, respectively.

Values taken from the supplement of paper PMC10307832.
